The source of these data is PubChem BioAssay AID256 (DTP/NCI, 2004).

The assay has as its system CD2F1 mice, L1210 leukemia ip, survival T/C. Put plainly: NCI In Vivo Anticancer Drug Screen. Data for tumor model L1210 Leukemia (intraperitoneal) in CD2F1 (CDF1) mice. As to conditions: higher = longer survival. The method, boiled down: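 Compound-dosed mice with transplantable tumor versus matched vehicle controls; endpoint ratio T/C reported.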
Setting [1] is: endpoint: mean survival time, dose: 50.0 mg/kg/injection, schedule: Q01DX009 (ip), vehicle: saline with Tween-80.
Where [2] appears, read: endpoint: mean survival time, dose: 50.0 mg/kg/injection, schedule: Q01DX009 (ip), vehicle: Klucel (hydroxypropylcellulose) (HPC).
Where [3] appears, read: endpoint: mean survival time, dose: 100.0 mg/kg/injection, schedule: Q01DX009 (ip), vehicle: Klucel (hydroxypropylcellulose) (HPC).
The mark [4] stands for this setting: endpoint: mean survival time, dose: 200.0 mg/kg/injection, schedule: Q01DX009 (ip), vehicle: Klucel (hydroxypropylcellulose) (HPC).
The mark [5] stands for this setting: endpoint: mean survival time, dose: 100.0 mg/kg/injection, schedule: Q01DX009 (ip), vehicle: saline with Tween-80.
The mark [6] stands for this setting: endpoint: mean survival time, dose: 200.0 mg/kg/injection, schedule: Q01DX009 (ip), vehicle: saline with Tween-80.

Where “and” joins values, the source holds several entries; their conditions need not be identical. Identical values can stand only once. Inconclusive results and toxic doses are left out.

On to `NCCOc1ccc(-n2cnc3c(=O)[nH]c(N)nc32)cc1`, for which the T/C was 93 % of control (endpoint: mean survival time, dose: 50.0 mg/kg/injection, schedule: Q04DX002 (ip), vehicle: saline with Tween-80); 96 % of control (endpoint: mean survival time, dose: 100.0 mg/kg/injection, schedule: Q04DX002 (ip), vehicle: saline with Tween-80); 104 % of control (endpoint: mean survival time, dose: 200.0 mg/kg/injection, schedule: Q04DX002 (ip), vehicle: saline with Tween-80).
Take `CCOC(=O)C(N)Cc1ccc(O)cc1` (configuration not stated): the T/C is, setting by setting: (endpoint: mean survival time, dose: 100.0 mg/kg/injection, schedule: Q04DX003 (ip), vehicle: other) 102 % of control; (endpoint: mean survival time, dose: 200.0 mg/kg/injection, schedule: Q04DX003 (ip), vehicle: other) 100 % of control; (endpoint: mean survival time, dose: 400.0 mg/kg/injection, schedule: Q04DX003 (ip), vehicle: other) 97 % of control.
Turning to `O=NN(CCF)C(=O)NC1CCC(NC(=O)N(CCF)N=O)CC1` (configuration not stated), the T/C (endpoint: mean survival time, dose: 3.13 mg/kg/injection, schedule: Q01DX009 (ip), vehicle: saline with Tween-80) is 117 % of control; the T/C (endpoint: mean survival time, dose: 12.5 mg/kg/injection, schedule: Q01DX009 (ip), vehicle: saline with Tween-80) is 240 % of control; the T/C (endpoint: mean survival time, dose: 25.0 mg/kg/injection, schedule: Q01DX009 (ip), vehicle: saline with Tween-80) is 273 % of control and 289 % of control; the T/C under setting [1] is 234 % of control.
With `O=C(/C=C/c1ccc(Cl)c(Cl)c1)/C=C/c1ccc(Cl)c(Cl)c1`, the T/C under setting [2] was 98 % of control, the T/C under setting [3] was 94 % of control and the T/C under setting [4] was 90 % of control.
`CN1C(=O)C2(Cc3cn(C45CC67SSC(CO)(C(=O)N6C4Nc4ccccc45)N(C)C7=O)c4ccccc34)SSC1(CO)C(=O)N2C` (configuration not stated): the T/C is 93 % of control (endpoint: mean survival time, dose: 0.31 mg/kg/injection, schedule: Q01DX009 (ip), vehicle: Klucel (hydroxypropylcellulose) (HPC)); 100 % of control (endpoint: mean survival time, dose: 0.62 mg/kg/injection, schedule: Q01DX009 (ip), vehicle: Klucel (hydroxypropylcellulose) (HPC)); 100 % of control (endpoint: mean survival time, dose: 1.25 mg/kg/injection, schedule: Q01DX009 (ip), vehicle: Klucel (hydroxypropylcellulose) (HPC)).
As to `O=C(O)CCC(=O)c1ccccc1`, the T/C reads like this: under setting [1], 101 % of control; under setting [5], 106 % of control; under setting [6], 106 % of control.
As for `CCN(CC)CCNc1ccc(CO)c2sc3ccccc3c(=O)c12`, the T/C (endpoint: mean survival time, dose: 4.0 mg/kg/injection, schedule: Q03HX008 (ip), vehicle: saline) is 101 % of control; the T/C (endpoint: mean survival time, dose: 4.0 mg/kg/injection, schedule: Q03HX016 (ip), vehicle: saline) is 104 % of control; the T/C (endpoint: mean survival time, dose: 4.0 mg/kg/injection, schedule: Q03HX024 (ip), vehicle: saline) is 110 % of control; the T/C (endpoint: mean survival time, dose: 8.0 mg/kg/injection, schedule: Q03HX008 (ip), vehicle: saline) is 112 % of control; the T/C (endpoint: mean survival time, dose: 8.0 mg/kg/injection, schedule: Q03HX016 (ip), vehicle: saline) was 108 % of control; the T/C (endpoint: mean survival time, dose: 8.0 mg/kg/injection, schedule: Q03HX024 (ip), vehicle: saline) is 117 % of control. Besides, the T/C (endpoint: mean survival time, dose: 12.5 mg/kg/injection, schedule: Q01DX009 (ip), vehicle: Klucel (hydroxypropylcellulose) (HPC)) is 106 % of control; the T/C (endpoint: mean survival time, dose: 16.0 mg/kg/injection, schedule: Q03HX008 (ip), vehicle: saline) is 105 % of control; the T/C (endpoint: mean survival time, dose: 16.0 mg/kg/injection, schedule: Q03HX016 (ip), vehicle: saline) was 110 % of control; the T/C (endpoint: mean survival time, dose: 16.0 mg/kg/injection, schedule: Q03HX024 (ip), vehicle: saline) is 151 % of control; the T/C (endpoint: mean survival time, dose: 25.0 mg/kg/injection, schedule: Q01DX009 (ip), vehicle: Klucel (hydroxypropylcellulose) (HPC)) was 102 % of control; the T/C (endpoint: mean survival time, dose: 32.0 mg/kg/injection, schedule: Q01DX001 (ip), vehicle: saline) was 107 % of control. Besides, the T/C reads like this: (endpoint: mean survival time, dose: 32.0 mg/kg/injection, schedule: Q01DX001 (sc), vehicle: saline) 116 % of control; (endpoint: mean survival time, dose: 32.0 mg/kg/injection, schedule: Q03HX016 (ip), vehicle: saline) 117 % of control; (endpoint: mean survival time, dose: 32.0 mg/kg/injection, schedule: Q03HX024 (ip), vehicle: saline) 184 % of control; (endpoint: mean survival time, dose: 32.0 mg/kg/injection, schedule: Q04DX003 (ip), vehicle: saline) 116 % of control; (endpoint: mean survival time, dose: 32.0 mg/kg/injection, schedule: Q08DX002 (ip), vehicle: saline) 114 % of control; under setting [2], 120 % of control. The T/C runs as follows: (endpoint: mean survival time, dose: 64.0 mg/kg/injection, schedule: Q01DX001 (ip), vehicle: saline) 108 % of control; (endpoint: mean survival time, dose: 64.0 mg/kg/injection, schedule: Q01DX001 (sc), vehicle: saline) 111 % of control; (endpoint: mean survival time, dose: 64.0 mg/kg/injection, schedule: Q01DX009 (ip), vehicle: saline) 174 % of control; (endpoint: mean survival time, dose: 64.0 mg/kg/injection, schedule: Q01DX009 (oral), vehicle: saline) 121 % of control; (endpoint: mean survival time, dose: 64.0 mg/kg/injection, schedule: Q01DX009 (sc), vehicle: saline) 156 % of control; (endpoint: mean survival time, dose: 64.0 mg/kg/injection, schedule: Q03HX008 (ip), vehicle: saline) 150 % of control. The T/C is 151 % of control (endpoint: mean survival time, dose: 64.0 mg/kg/injection, schedule: Q03HX016 (ip), vehicle: saline); 94 % of control (endpoint: mean survival time, dose: 64.0 mg/kg/injection, schedule: Q03HX024 (ip), vehicle: saline); 113 % of control (endpoint: mean survival time, dose: 64.0 mg/kg/injection, schedule: Q08DX002 (ip), vehicle: saline); 113 % of control (endpoint: mean survival time, dose: 120.0 mg/kg/injection, schedule: Q01DX001 (ip), vehicle: acetone); 118 % of control (endpoint: mean survival time, dose: 120.0 mg/kg/injection, schedule: Q01DX009 (ip), vehicle: acetone); 110 % of control (endpoint: mean survival time, dose: 128.0 mg/kg/injection, schedule: Q01DX001 (ip), vehicle: saline). For the same compound, the T/C was 115 % of control (endpoint: mean survival time, dose: 128.0 mg/kg/injection, schedule: Q01DX001 (sc), vehicle: saline); 101 % of control (endpoint: mean survival time, dose: 128.0 mg/kg/injection, schedule: Q01DX009 (ip), vehicle: saline); 111 % of control (endpoint: mean survival time, dose: 128.0 mg/kg/injection, schedule: Q01DX009 (sc), vehicle: saline); 111 % of control (endpoint: mean survival time, dose: 128.0 mg/kg/injection, schedule: Q08DX002 (ip), vehicle: saline); 106 % of control (endpoint: mean survival time, dose: 180.0 mg/kg/injection, schedule: Q01DX001 (ip), vehicle: acetone); 122 % of control (endpoint: mean survival time, dose: 256.0 mg/kg/injection, schedule: Q01DX001 (ip), vehicle: saline). Besides, the T/C is, setting by setting: (endpoint: mean survival time, dose: 256.0 mg/kg/injection, schedule: Q01DX001 (oral), vehicle: saline) 110 % of control; (endpoint: mean survival time, dose: 256.0 mg/kg/injection, schedule: Q01DX001 (sc), vehicle: saline) 115 % of control; (endpoint: mean survival time, dose: 256.0 mg/kg/injection, schedule: Q01DX009 (oral), vehicle: saline) 124 % of control; (endpoint: mean survival time, dose: 400.0 mg/kg/injection, schedule: Q01DX001 (ip), vehicle: acetone) 120 % of control; (endpoint: mean survival time, dose: 512.0 mg/kg/injection, schedule: Q01DX001 (oral), vehicle: saline) 117 % of control; (endpoint: median survival time, dose: 10.0 mg/kg/injection, schedule: Q01DX009 (ip), vehicle: water) 102 % of control. For the same compound, the T/C (endpoint: median survival time, dose: 40.0 mg/kg/injection, schedule: Q01DX009 (ip), vehicle: water) is 150 % of control and the T/C (endpoint: median survival time, dose: 160.0 mg/kg/injection, schedule: Q01DX009 (ip), vehicle: water) is 103 % of control.
Turning to `CC(=O)OC1CCC2(C)C(=CC=C3C2CCC2(C)C3CC3OC4(CCC(C)CO4)C(C)C32)C1` (configuration not stated), the T/C under setting [2] is 92 % of control, the T/C under setting [3] was 97 % of control and the T/C under setting [4] is 94 % of control.
With `Cc1cccc(/C=N/OCCC(C)C)n1`, the T/C was 102 % of control under setting [1]; 96 % of control under setting [5]; 93 % of control (endpoint: mean survival time, dose: 100.0 mg/kg/injection, schedule: Q04DX003 (ip), vehicle: saline with Tween-80); 102 % of control under setting [6]; 89 % of control (endpoint: mean survival time, dose: 200.0 mg/kg/injection, schedule: Q04DX003 (ip), vehicle: saline with Tween-80).
In the case of `CC(N)(CCOCc1ccccc1)C(=O)O` (configuration not stated), the T/C is 97 % of control (endpoint: mean survival time, dose: 100.0 mg/kg/injection, schedule: Q01DX001 (ip), vehicle: saline with Tween-80); 103 % of control under setting [5]; 96 % of control (endpoint: mean survival time, dose: 200.0 mg/kg/injection, schedule: Q01DX001 (ip), vehicle: saline with Tween-80); 101 % of control under setting [6]; 103 % of control (endpoint: mean survival time, dose: 400.0 mg/kg/injection, schedule: Q01DX001 (ip), vehicle: saline with Tween-80); 101 % of control (endpoint: mean survival time, dose: 400.0 mg/kg/injection, schedule: Q01DX009 (ip), vehicle: saline with Tween-80).
